Assay results taken from article PMC8286840, “Identifying SARS-CoV-2 antiviral compounds by screening for small molecule inhibitors of Nsp3 papain-like protease” (Biochemical Journal, 2021).
Where a name gives a salt, the structure may show the parent alone. Read-outs that look alike come from different tables or passages of the source.

How the values were obtained:
[1] = target: T1, SARS-CoV-2 PLpro (nsp3 1564–1878) (Severe acute respiratory syndrome coronavirus 2, UniProt P0DTD1); experiment: biochemical; parameters: FRET-quenched peptide (Pro3) cleavage by PLpro, 10 min pre-incubation, slope over 20 min, normalised to no-compound control; settings: low concentration screen, read-out: % of control remaining
[2] = target: T1, SARS-CoV-2 PLpro (nsp3 1564–1878); experiment: biochemical; parameters: FRET-quenched peptide (Pro3) cleavage by PLpro, 10 min pre-incubation, slope over 20 min, normalised to no-compound control; settings: high concentration screen, read-out: % of control remaining

Molecule `Cc1c(NC(=O)c2cc(C(N)=O)nc3cc(F)ccc23)c(C(F)(F)F)nn1Cc1ccc(C#N)cc1` [BAY-876] has a remaining activity at 1.25 µM ([1]; Well no.=8680) of 101% and a remaining activity at 3.75 µM ([2]; Well no.=8680) of 98.3%.

For `CN1CCN(CCc2ccc(Cl)c(Cl)c2)CC1` [BD1063 (dhydrochloride)], the remaining activity at 1.25 µM ([1]; Well no.=8057) was 90.2% and the remaining activity at 3.75 µM ([2]; Well no.=8057) was 95.3%.

`CN(C)CCN(C)CCc1ccc(Cl)c(Cl)c1` [BD 1047 dihydrobromide] gave a remaining activity at 1.25 µM ([1]; Well no.=5470) of 101% and a remaining activity at 3.75 µM ([2]; Well no.=5470) of 108%.

With `CN(C)CCN(C)CCc1ccc(Cl)c(Cl)c1` [BD-1047 (dihydrobromide)] the remaining activity at 1.25 µM ([1]; Well no.=7287) was 95.4% and the remaining activity at 3.75 µM ([2]; Well no.=7287) was 97.8%.

Work on `N[C@@H](CSCCB(O)O)C(=O)O` [BEC (hydrochloride)] yielded a remaining activity at 1.25 µM ([1]; Well no.=8165) of 105% and a remaining activity at 3.75 µM ([2]; Well no.=8165) of 103%.

Molecule `CCN1CCN(c2ccc(Nc3cc(N(C)C(=O)Nc4c(Cl)c(OC)cc(OC)c4Cl)ncn3)cc2)CC1` [BGJ398 (NVP-BGJ398)] has a remaining activity at 1.25 µM ([1]; Well no.=5140) of 97% and a remaining activity at 3.75 µM ([2]; Well no.=5140) of 99.3%.

`CC(C)C(C(=O)O)N1C(=O)/C(=C\c2ccc(Br)cc2)SC1=S` (centres unmarked) [BH3I-1] was tested, and the remaining activity at 1.25 µM ([1]; Well no.=6586) was 98.6% and the remaining activity at 3.75 µM ([2]; Well no.=6586) was 99.7%.

`O=c1[nH]nc(Sc2ncc([N+](=O)[O-])s2)n1-c1ccc2c(c1)OCCO2` [BI 78D3 - 4-(2,3-Dihydro-1,4-benzodioxin-6-yl)-2,4-dihydro-5-[(5-nitro-2-thiazolyl)thio]-3H-1,2,4-triazol-3-one] gave a remaining activity at 1.25 µM ([1]; Well no.=2684) of 95.6% and a remaining activity at 3.75 µM ([2]; Well no.=2684) of 97.1%.

`O=c1[nH]nc(Sc2ncc([N+](=O)[O-])s2)n1-c1ccc2c(c1)OCCO2` [BI-78D3] gave a remaining activity at 1.25 µM ([1]; Well no.=6058) of 101% and a remaining activity at 3.75 µM ([2]; Well no.=6058) of 96.9%.

`CC(C)CCN1c2nc(Nc3cc(F)c(O)c(F)c3)ncc2N(C)C(=O)C1C` (centres unmarked) [BI-D1870] was tested, and the remaining activity at 1.25 µM ([1]; Well no.=2787) was 101% and the remaining activity at 3.75 µM ([2]; Well no.=2787) was 104%.

Molecule `C/C(=C\C(=O)Nc1ccccc1C(=O)O)c1ccc2ccccc2c1` [BIBR 1532] has a remaining activity at 1.25 µM ([1]; Well no.=5095) of 103% and a remaining activity at 3.75 µM ([2]; Well no.=5095) of 106%.

`CN1CCC(Nc2ncc3ncnc(Nc4ccc(F)c(Cl)c4)c3n2)CC1` [BIBX 1382 dihydrochloride - N8-(3-Chloro-4-fluorophenyl)-N2-(1-methyl-4-piperidinyl)-pyrimido[5,4-d]pyrimidine-2,8-diamine dihydrochloride] was tested, and the remaining activity at 1.25 µM ([1]; Well no.=2528) was 96.6% and the remaining activity at 3.75 µM ([2]; Well no.=2528) was 91%.

`COc1c(C)cnc(Cn2cnc3c(Cl)nc(N)nc32)c1C` [BIIB021] was tested, and the remaining activity at 1.25 µM ([1]; Well no.=5091) was 104% and the remaining activity at 3.75 µM ([2]; Well no.=5091) was 107%.

`CC(=O)O/N=C1/C(c2c(O)[nH]c3cc(Br)ccc23)=Nc2ccccc21` [BIO-Acetoxime] gave a remaining activity at 1.25 µM ([1]; Well no.=5822) of 96% and a remaining activity at 3.75 µM ([2]; Well no.=5822) of 93.6%.

`Cc1ccc(-n2nc(C(C)(C)C)cc2NC(=O)Nc2ccc(OCCN3CCOCC3)c3ccccc23)cc1` [BIRB 796 (Doramapimod)] gave a remaining activity at 1.25 µM ([1]; Well no.=5264) of 89.3% and a remaining activity at 3.75 µM ([2]; Well no.=5264) of 89.7%.

Work on `COc1cc2nc(N3CCCN(C)CC3)nc(NC3CCN(Cc4ccccc4)CC3)c2cc1OC` [BIX01294] yielded a remaining activity at 1.25 µM ([1]; Well no.=5180) of 102% and a remaining activity at 3.75 µM ([2]; Well no.=5180) of 99.6%.

Work on `CN(C)Cc1cccc(N/C(=C2\C(=O)Nc3cc(C(N)=O)ccc32)c2ccccc2)c1` [BIX 02188] yielded a remaining activity at 1.25 µM ([1]; Well no.=5283) of 96.6% and a remaining activity at 3.75 µM ([2]; Well no.=5283) of 93.8%.

In the case of `COc1ccc2c(c1)c(CC(=O)N1CCOCC1)c(C)n2C(=O)c1ccc(Cl)cc1` [BML-190], the remaining activity at 1.25 µM ([1]; Well no.=4328) is reported as 97.5%, the remaining activity at 1.25 µM ([1]; Well no.=8379) is reported as 96.7% and the remaining activity at 3.75 µM ([2]; Well no.=4328) is reported as 92.3%. For the same molecule, the remaining activity at 3.75 µM ([2]; Well no.=8379) was 97.9%.

With `Nc1ccccc1NC(=O)CCCCCCC(=O)Nc1ccccc1` [BML-210] the remaining activity at 1.25 µM ([1]; Well no.=5799) was 105% and the remaining activity at 3.75 µM ([2]; Well no.=5799) was 104%.

`CCOc1ccn(-c2ccc(F)cc2)c(=O)c1C(=O)Nc1ccc(Oc2ccnc(N)c2Cl)c(F)c1` [BMS 777607] gave a remaining activity at 1.25 µM ([1]; Well no.=5297) of 94.1% and a remaining activity at 3.75 µM ([2]; Well no.=5297) of 90.4%.

`Nc1nccc(Oc2ccc(NC(=O)c3c[nH]cc(-c4ccc(F)cc4)c3=O)cc2F)c1Cl` [BMS 794833] showed a remaining activity at 1.25 µM ([1]; Well no.=5150) of 100% and a remaining activity at 3.75 µM ([2]; Well no.=5150) of 96.4%.
